Reference: patent US20070128217A1 (priority 2003, published 2007)

How the values were obtained:
[1] = test system: control sera (pooled serum of ten healthy LUMC hospital workers; commercial negative donor pooled serum from the Dutch bloodbank); format: binding, human
[2] = test system: rabbit serum obtained by immunizing a rabbit with the SARS-CoV strain Frankfurt 1; format: binding; design: Binding of a rabbit serum to linear peptides / Binding of a rabbit serum to looped peptides / Rabbit serum linear peptides / Rabbit serum looped peptides / Binding of a rabbit serum to linear peptides of protein N of SARS-CoV Urbani (Rabbit serum linear peptides) / Binding of a rabbit serum to looped/cyclic peptides of protein N of SARS-CoV Urbani (Rabbit serum looped peptides): unit not given here
[3] = test system: antibodies in sera from SARS patients (sera 1a, 1b, 2, 6, 37, 62, London, SARS-yellow, SARS-green); format: binding, human

Sequence	Binding of Control Serum Blood-Bank to Looped peptides [1]	Binding of Control serum Blood-bank to linear peptides [1]	Binding of Control serum LUMC to linear peptides [1]	Binding of Control serum LUMC to looped peptides [1]	Binding of a rabbit serum to linear peptides [2]	Binding of a rabbit serum to looped peptides [2]	Binding of serum 1a to linear peptides of protein E of SARS-CoV Urbani [3]	Binding of serum 1a to looped/cyclic peptides of protein E of SARS-CoV Urbani [3]	Binding of serum 1b to linear peptides of protein E of SARS-CoV Urbani [3]	Binding of serum 1b to looped/cyclic peptides of protein E of SARS-CoV Urbani [3]	Binding of serum 2 to linear peptides of protein E of SARS-CoV Urbani [3]	Binding of serum 2 to looped/cyclic peptides of protein E of SARS-CoV Urbani [3]	Binding of serum 6 to linear peptides of protein E of SARS-CoV Urbani [3]	Binding of serum 6 to looped/cyclic peptides of protein E of SARS-CoV Urbani [3]	Binding of serum 37 to linear peptides of protein E of SARS-CoV Urbani [3]	Binding of serum 37 to looped/cyclic peptides of protein E of SARS-CoV Urbani [3]	Binding of serum 62 to linear peptides of protein E of SARS-CoV Urbani [3]	Binding of serum 62 to looped/cyclic peptides of protein E of SARS-CoV Urbani [3]	Binding of serum London to linear peptides of protein E of SARS-CoV Urbani [3]	Binding of serum London to looped/cyclic peptides of protein E of SARS-CoV Urbani [3]	other results
FVSEETGTLIVNSVL	0.8	0.7	1.1	0.7	0.3	0.1	0.8	0.6	0.6	0.6	0.5	0.4	0.4	0.5	0.4	0.6	0.5	0.8	0.8	0.5	Binding of serum SARS-green to linear peptides of protein E of SARS-CoV Urbani [3]: 0.6; Binding of serum SARS-green to looped/cyclic peptides of protein E of SARS-CoV Urbani [3]: 0.6; Binding of serum SARS-yellow to linear peptides of protein E of SARS-CoV Urbani [3]: 0.4; Binding of serum SARS-yellow to looped/cyclic peptides of protein E of SARS-CoV Urbani [3]: 0.8
ILTALRLCAYCCNIV	0.8	0.8	0.4	0.8	0.6	0.6	0.8	0.9	0.7	0.6	0.4	1.0	0.8	0.7	0.7	0.7	0.8	0.8	0.5	0.6	Binding of serum SARS-green to linear peptides of protein E of SARS-CoV Urbani [3]: 0.5; Binding of serum SARS-green to looped/cyclic peptides of protein E of SARS-CoV Urbani [3]: 0.6; Binding of serum SARS-yellow to linear peptides of protein E of SARS-CoV Urbani [3]: 0.2; Binding of serum SARS-yellow to looped/cyclic peptides of protein E of SARS-CoV Urbani [3]: 0.6
IVNSVLLFLAFVVFL	0.5	0.6	0.4	0.7	0.5	0.5	0.8	0.6	0.6	0.4	0.4	0.5	0.7	0.3	0.7	0.6	0.6	0.6	0.4	0.3	Binding of serum SARS-green to linear peptides of protein E of SARS-CoV Urbani [3]: 0.3; Binding of serum SARS-green to looped/cyclic peptides of protein E of SARS-CoV Urbani [3]: 0.2; Binding of serum SARS-yellow to linear peptides of protein E of SARS-CoV Urbani [3]: 0.2; Binding of serum SARS-yellow to looped/cyclic peptides of protein E of SARS-CoV Urbani [3]: 0.7
LAFVVFLLVTLAILT	0.8	0.6	0.5	0.6	0.5	0.2	0.8	0.5	0.5	0.5	0.5	0.5	0.7	0.5	0.7	0.6	0.7	0.6	0.6	0.5	Binding of serum SARS-green to linear peptides of protein E of SARS-CoV Urbani [3]: 0.3; Binding of serum SARS-green to looped/cyclic peptides of protein E of SARS-CoV Urbani [3]: 0.5; Binding of serum SARS-yellow to linear peptides of protein E of SARS-CoV Urbani [3]: 0.1; Binding of serum SARS-yellow to looped/cyclic peptides of protein E of SARS-CoV Urbani [3]: 0.4
LAILTALRLCAYCCN	0.7	0.7	0.6	0.8	0.6	0.6	0.8	0.8	0.7	0.4	0.5	0.6	0.5	0.5	0.8	0.6	0.8	0.7	0.5	0.4	Binding of serum SARS-green to linear peptides of protein E of SARS-CoV Urbani [3]: 0.5; Binding of serum SARS-green to looped/cyclic peptides of protein E of SARS-CoV Urbani [3]: 0.5; Binding of serum SARS-yellow to linear peptides of protein E of SARS-CoV Urbani [3]: 0.2; Binding of serum SARS-yellow to looped/cyclic peptides of protein E of SARS-CoV Urbani [3]: 0.8
